{"source": "patent US10196386B2", "about": "“Compounds having muscarinic receptor antagonist and beta2 adrenergic receptor agonist activity” (priority 2016, dated 2019)", "key": {"[1]": {"biological_target": "T1, Human M3 receptor (Homo sapiens, UniProt P20309)", "T1 construct": "purchased Perkin Elmer", "T1 sequence (P20309 whole entry)": "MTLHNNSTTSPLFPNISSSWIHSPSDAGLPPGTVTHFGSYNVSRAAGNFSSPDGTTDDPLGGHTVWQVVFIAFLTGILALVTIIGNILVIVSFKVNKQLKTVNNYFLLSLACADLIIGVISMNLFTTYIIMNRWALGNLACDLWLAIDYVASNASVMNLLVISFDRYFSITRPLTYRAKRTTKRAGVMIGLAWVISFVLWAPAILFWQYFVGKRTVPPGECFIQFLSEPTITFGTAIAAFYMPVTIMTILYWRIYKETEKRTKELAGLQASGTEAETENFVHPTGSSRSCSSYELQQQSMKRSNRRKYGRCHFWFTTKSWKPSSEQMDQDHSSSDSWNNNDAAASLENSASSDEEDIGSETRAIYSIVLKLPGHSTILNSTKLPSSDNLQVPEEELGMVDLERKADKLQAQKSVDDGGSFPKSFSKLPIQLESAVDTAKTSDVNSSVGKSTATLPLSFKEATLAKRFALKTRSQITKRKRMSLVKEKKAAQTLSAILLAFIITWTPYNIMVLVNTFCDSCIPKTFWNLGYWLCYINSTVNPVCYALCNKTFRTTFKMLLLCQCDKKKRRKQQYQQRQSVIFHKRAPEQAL", "test": "biochemical", "type": "binding", "details": "read-out: M3 Range"}, "[2]": {"biological_target": "T2, Human β2 adrenoceptor (Homo sapiens, UniProt P07550)", "T2 construct": "purchased Perkin Elmer", "T2 sequence (P07550 whole entry)": "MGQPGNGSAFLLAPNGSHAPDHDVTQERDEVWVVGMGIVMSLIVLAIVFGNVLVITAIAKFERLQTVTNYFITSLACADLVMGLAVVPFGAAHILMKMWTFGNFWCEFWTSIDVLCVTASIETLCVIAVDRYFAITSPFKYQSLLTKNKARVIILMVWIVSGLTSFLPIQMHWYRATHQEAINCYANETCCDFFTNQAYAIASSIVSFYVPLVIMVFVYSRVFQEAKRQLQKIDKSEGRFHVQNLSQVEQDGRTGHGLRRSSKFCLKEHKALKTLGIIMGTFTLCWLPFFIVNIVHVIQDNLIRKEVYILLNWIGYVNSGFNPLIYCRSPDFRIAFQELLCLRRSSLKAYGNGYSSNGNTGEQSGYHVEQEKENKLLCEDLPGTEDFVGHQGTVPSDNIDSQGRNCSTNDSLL", "test": "β2 adrenoceptor radioligand binding assay", "description": "β2 Adrenoceptor Radioligand Binding Assay\nHuman β2 adrenoceptor membranes (7.5 ug/well) from Perkin Elmer were incubated with 0.3 nM 125-I Cyanopindolol with or without test compounds, or a saturating concentration of s-propranolol (2 μM) for the determination of non-specific binding. The assay was carried out in 96-well polypropylene plates in a volume of 200 ul. The assay buffer used was 25 mM HEPES, 0.5% BSA (w/v), 1 mM EDTA, 0.02% ascorbic acid (v/v), (pH 7.4). The final assay concentration of DMSO was 0.5% (v/v). The plates were sealed and incubated for 1 h at room temperature on an orbital shaker (slow speed). Membranes were harvested onto 96-well unifilter GF/C filter plates pre-treated with 0.5% polyethyleneimine (v/v), using a filter manifold, washed six times with 200 ul of wash buffer containing 10 mM HEPES and 500 mM NaCl. The plates were dried before addition of 50 μl of microscint-0, sealed then read in a Trilux Microbeta scintillation counter. IC50 values are determined from competition curves using a non-linear curve fitting program. Ki values were calculated from IC50 values by the Cheng and Prusoff equation."}}, "data": [{"smiles": "O=C(NCc1ccc(-c2cccc([C@](O)(C(=O)OCC3CCN(Cc4ccccc4)CC3)c3ccccc3)c2)s1)c1ccc(CNC[C@H](O)c2ccc(O)c3[nH]c(=O)ccc23)cc1Cl", "note": "[Compound 1, (1-Benzylpiperidin-4-yl)methyl (S)-2-(3-(5-((2-chloro-4-((((R)-2-hydroxy-2-(8-hydroxy-2-oxo-1,2-dihydroquinolin-5-yl)ethyl)amino)methyl)benzamido-)methyl)thiophen-2-yl)phenyl)-2-hydroxy-2-phenylacetate]", "values": [{"measurement": "IC50", "setting": "[1]", "result": "0.3 to 3", "unit": "nM"}, {"measurement": "IC50", "setting": "[2]", "result": "< 0.3", "unit": "nM"}]}, {"smiles": "O=C(NCc1ccc(-c2cccc([C@](O)(C(=O)OCC3CCN(Cc4ccccc4)CC3)c3ccccc3)c2)s1)c1ccc(CNC[C@H](O)c2ccc(O)c3[nH]c(=O)ccc23)cc1", "note": "[Compound 1A, (1-Benzylpiperidin-4-yl)methyl (S)-2-hydroxy-2-(3-(5-((4-((((R)-2-hydroxy-2-(8-hydroxy-2-oxo-1,2-dihydroquinolin-5-yl)ethyl)amino)methyl)benzamido)-methyl)thiophen-2-yl)phenyl)-2-phenylacetate]", "values": [{"measurement": "IC50", "setting": "[1]", "result": "0.3 to 3", "unit": "nM"}, {"measurement": "IC50", "setting": "[2]", "result": "< 0.3", "unit": "nM"}]}, {"smiles": "COc1cc(C(=O)NCc2ccc(-c3cccc([C@](O)(C(=O)OCC4CCN(Cc5ccccc5)CC4)c4ccccc4)c3)s2)ccc1CNC[C@H](O)c1ccc(O)c2[nH]c(=O)ccc12", "note": "[Compound 1B, (1-Benzylpiperidin-4-yl)methyl (S)-2-hydroxy-2-(3-(5-((4-((((R)-2-hydroxy-2-(8-hydroxy-2-oxo-1,2-dihydroquinolin-5-yl)ethyl)amino)methyl)-3-methoxybenzamido)methyl)thiophen-2-yl)phenyl)-2-phenylacetate]", "values": [{"measurement": "IC50", "setting": "[1]", "result": "0.3 to 3", "unit": "nM"}, {"measurement": "IC50", "setting": "[2]", "result": "< 0.3", "unit": "nM"}]}, {"smiles": "COc1cc(CNC[C@H](O)c2ccc(O)c3[nH]c(=O)ccc23)ccc1C(=O)NCc1ccc(-c2cccc([C@](O)(C(=O)OCC3CCN(Cc4ccccc4)CC3)c3ccccc3)c2)s1", "note": "[Compound 1C, (1-Benzylpiperidin-4-yl)methyl (S)-2-hydroxy-2-(3-(5-((4-((((R)-2-hydroxy-2-(8-hydroxy-2-oxo-1,2-dihydroquinolin-5-yl)ethyl)amino)methyl)-2-methoxybenzamido)methyl)thiophen-2-yl)phenyl)-2-phenylacetate]", "values": [{"measurement": "IC50", "setting": "[1]", "result": "0.3 to 3", "unit": "nM"}, {"measurement": "IC50", "setting": "[2]", "result": "0.3 to 3", "unit": "nM"}]}, {"smiles": "CN1CCC(OC(=O)[C@](O)(c2ccccc2)c2cccc(-c3ccc(CNC(=O)c4ccc(CNC[C@H](O)c5ccc(O)c6[nH]c(=O)ccc56)cc4)s3)c2)CC1", "note": "[Compound 2, 1-Methylpiperidin-4-yl (S)-2-hydroxy-2-(3-(5-((4-((((R)-2-hydroxy-2-(8-hydroxy-2-oxo-1,2-dihydroquinolin-5-yl)ethyl)amino)methyl)benzamido)-methyl)thiophen-2-yl)phenyl)-2-phenylacetate]", "values": [{"measurement": "IC50", "setting": "[2]", "result": "< 0.3", "unit": "nM"}]}, {"smiles": "O=C(NCc1ccc(-c2cccc([C@](O)(C(=O)OC[C@H]3CCCN(Cc4ccccc4)C3)c3ccccc3)c2)s1)c1ccc(CNC[C@H](O)c2ccc(O)c3[nH]c(=O)ccc23)cc1", "note": "[Compound 2C, ((S)-1-Benzylpiperidin-3-yl)methyl (S)-2-hydroxy-2-(3-(5-((4-((((R)-2-hydroxy-2-(8-hydroxy-2-oxo-1,2-dihydroquinolin-5-yl)ethyl)amino)-methyl)benzamido)methyl)thiophen-2-yl)phenyl)-2-phenylacetate]", "values": [{"measurement": "IC50", "setting": "[2]", "result": "0.3 to 3", "unit": "nM"}]}, {"smiles": "O=C(NCc1ccc(-c2cccc([C@](O)(C(=O)OC3CCN(Cc4ccccc4)CC3)c3ccccc3)c2)s1)c1ccc(CNC[C@H](O)c2ccc(O)c3[nH]c(=O)ccc23)cc1", "note": "[Compound 2F, 1-Benzylpiperidin-4-yl (S)-2-hydroxy-2-(3-(5-((4-((((R)-2-hydroxy-2-(8-hydroxy-2-oxo-1,2-dihydroquinolin-5-yl)ethyl)amino)methyl)-benzamido)methyl)thiophen-2-yl)phenyl)-2-phenylacetate]", "values": [{"measurement": "IC50", "setting": "[2]", "result": "< 0.3", "unit": "nM"}]}]}
